Results reported in patent publication US20240218022A1, “ANTI-VISTA MACROCYCLIC PEPTIDES AND COMPOSITIONS” (BRISTOL-MYERS SQUIBB COMPANY, priority 2022, published 2024).
Read-outs that look alike come from different tables or passages of the source. Starred links: 1 amine or outer side, 2 acyl side, 3 side chain; linkers in the order of their positions; H or OH if unused. Positions of bridges follow the written chain, without caps; N, C: chain ends. Non-standard residues stand in square brackets, D forms with d. Residues, ends and D or L forms follow the SMILES beside them. Phe(3-Cl) = N[C@@H](Cc1cccc(Cl)c1)C(=O)O; γGlu = O=C(O)[C@H](CCC(=O)[*:2])N[*:1]; 2Nal = N[C@@H](Cc1ccc2ccccc2c1)C(=O)O; Ahp(2) = CCCCC[C@H](N)C(=O)O; NMeNle = CCCC[C@H](NC)C(=O)O; Tle = CC(C)(C)[C@H](N)C(=O)O; Pip = O=C(O)[C@@H]1CCCCN1; NHexGly = CCCCCCNCC(=O)O; Nle = CCCC[C@H](N)C(=O)O; Orn = NCCC[C@H](N)C(=O)O; Aun = NCCCCCCCCCCC(=O)O; Dab = NCC[C@H](N)C(=O)O; AEEA = NCCOCCOCC(=O)O

Biological target: T1, mouse VISTA (mVISTA) (Mus musculus, UniProt Q9D659)
T1 construct: expressed in transfected cells; host or cells: Human embryonic kidney 293T cells
T1 sequence (Q9D659 33-308): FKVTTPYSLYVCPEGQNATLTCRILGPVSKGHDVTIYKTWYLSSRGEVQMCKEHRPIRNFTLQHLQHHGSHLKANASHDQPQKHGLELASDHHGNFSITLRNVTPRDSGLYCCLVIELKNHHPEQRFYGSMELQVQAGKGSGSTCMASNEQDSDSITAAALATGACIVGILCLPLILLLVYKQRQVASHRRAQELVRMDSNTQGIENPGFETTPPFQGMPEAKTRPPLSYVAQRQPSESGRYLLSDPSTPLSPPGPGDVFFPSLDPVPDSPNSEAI
Experiment: Cell-Based Binding High-Content Assay For mVISTA (HC CBA mVISTA)
Procedure: Cell-Based Binding High-Content Assay For mVISTA
Human embryonic kidney 293T cells (293T) expressing mouse VISTA (mVISTA) were used for the assessment of compounds competing with the binding of a biotinylated peptide. Cryopreserved cells were thawed in a 37° C. water bath and incubated overnight at a 37° C./5% CO2 incubator in assay culture media DMEM (Life Technologies Inc. Cat. No. 11995-126) supplemented with 10% (v/v) FBS (Sigma, Cat. No. F4135), 1× Penicillin/Streptomycin (Life Technologies Inc. Cat. No. 15140-122). Cells were harvested, washed and resuspended in DMEM media […]. To test compounds under “no-wash” condition, cells were seeded into PDL-coated 384 well plates (Corning, Cat. No. 356663) at 4,000 cells/20 μL. After incubating the cell plates for two hours at a 37° C./5% CO2 incubator, 125 nL of test compound was added using an ECHO. Alternatively, to test compounds under “wash” condition, test compounds were added first, followed by addition of 20 μL cells at a density of 4000 cells/well. After incubation for an hour, the media was removed, followed by addition of 20 μL of fresh media ( ), and plates were then incubated for another hour. To plates either under “no wash” or “wash” condition, the biotinylated peptide was added to a final concentration of 2 nM, and plates were incubated at room temperature for 30 minutes. Fifteen (15) μL of Alexa 647 conjugated Streptavidin (Life Tech, Cat. No. S21374), suspended at 2 μg/ml in media, was added to the assay plate and incubate for 30 minutes. Cells were fixed by adding 15 μL of formaldehyde at a final concentration of 8% (w/v) (Sigma Cat. No. 252549), 20 μg/mL Hoechst (Thermo Scientific Cat. No. 62249) in PBS for 10 minutes at room temperature. The plates were washed 3 times in dPBS, sealed, and read on a CellInsight NXT High Content Screening Platform IC903000 (Thermo Scientific). The 50% effective concentration (IC50) was calculated using the four-parameter logistic formula y=A+((B−A)/(1+((C/x)^D))), where A and B denote minimal and maximal % inhibition, respectively, C is the EC50, D is hill slope and x represent compound concentration.

[1] = 293T cells expressing mouse VISTA, competition with biotinylated peptide (2 nM), read-out: HC CBA mVISTA IC50
[2] = cell-based binding high-content assay, mVISTA, the 16th table, read-out: HC CBA mVISTA IC50

IC50 (read-out: HC CBA mVISTA IC50) [µM] | IC50 [1] [µM] | Structure (SMILES) | other results
– | – | CCCCCCN1CC(=O)N[C@@H](Cc2ccc(O)cc2)C(=O)N[C@@H](CCCC)C(=O)N[C@@H](CC(N)=O)C(=O)N[C@@H](CCCNC(=N)N)C(=O)N[C@@H](CC(C)C)C(=O)N[C@@H](CCCCC)C(=O)N2CCC[C@H]2C(=O)N[C@@H](C(C)C)C(=O)N[C@@H](CO)C(=O)N[C@H](C(=O)NCCOCCOCC(=O)N[C@@H](CC(=O)O)C(=O)NCCOCCOCC(=O)NCCCCCCCCCCC(=O)O)CSCC(=O)N[C@@H](Cc2ccc3ccccc3c2)C(=O)N[C@@H](Cc2ccc(O)cc2)C(=O)N[C@@H](CC(=O)O)C1=O (stereo in doubt) [compound 2288] | IC50 (cell-based binding high-content assay, read-out: HC CBA miPrISTA IC50): 0.0086 µM
0.0486 | – | CCCCCCN1CC(=O)N[C@@H](Cc2ccc(O)cc2)C(=O)N[C@@H](CCCC)C(=O)N[C@@H](CC(=O)O)C(=O)N[C@@H](CCCNC(=N)N)C(=O)N(C)[C@@H](CCCC)C(=O)N[C@@H](CCCCC)C(=O)N2CCC[C@H]2C(=O)N[C@@H](C(C)(C)C)C(=O)N[C@@H](CO)C(=O)N[C@H](C(=O)NCC(N)=O)CSCC(=O)N[C@@H](Cc2ccccc2)C(=O)N[C@@H](Cc2c[nH]c3ccccc23)C(=O)N[C@@H](CC(=O)O)C1=O [Example 1395] ({CH2CO}-FWD[NHexGly]Y[Nle]DR[NMeNle][Ahp(2)]P[Tle]SCG-NH2; thioether N-14) | –
– | 0.0098 | CCCCCCN1CC(=O)N[C@@H](Cc2ccc(O)cc2)C(=O)N[C@@H](C(C)C)C(=O)NCC(=O)N[C@@H](CCCNC(=N)N)C(=O)N[C@@H](CC(C)C)C(=O)N[C@@H](CCCCC)C(=O)N2CCC[C@H]2C(=O)N[C@@H](C(C)C)C(=O)N[C@@H](CC(=O)O)C(=O)N[C@H](C(=O)N[C@@H](CO)C(=O)N[C@@H](CCN)C(=O)N[C@@H](CC(N)=O)C(=O)O)CSCC(=O)N[C@@H](Cc2ccc3ccccc3c2)C(=O)N[C@@H](Cc2ccc(O)cc2)C(=O)N[C@@H](CC(=O)O)C1=O [Example 1164] ({CH2CO}-[2Nal]YD[NHexGly]YVGRL[Ahp(2)]PVDCS[Dab]N-OH; thioether N-14) | –
0.013 | – | CCCCCCN1CC(=O)N[C@@H](Cc2ccc(O)cc2)C(=O)N[C@@H](CC(C)C)C(=O)N[C@@H](CC(N)=O)C(=O)N[C@@H](CCCNC(=N)N)C(=O)N[C@@H](CC(C)C)C(=O)N[C@@H](CCCCC)C(=O)N2CCC[C@H]2C(=O)N[C@@H](C(C)(C)C)C(=O)N[C@@H](CC(=O)O)C(=O)N[C@H](C(=O)NCCOCCOCC(=O)N[C@@H](CCC(=O)NCCOCCOCC(=O)NCCCCCCCCCCC(=O)O)C(=O)O)CSCC(=O)N[C@@H](Cc2ccccc2)C(=O)N[C@@H](Cc2ccc(O)cc2)C(=O)N[C@@H](CC(=O)O)C1=O [compound 2232] ({CH2CO}-FYD[NHexGly]YLNRL[Ahp(2)]P[Tle]DC[AEEA][γGlu][AEEA][Aun]-OH; thioether N-14) | –
– | 0.0149 | CCCCCCN1CC(=O)N[C@@H](Cc2ccc(O)cc2)C(=O)N[C@@H](CCCCC)C(=O)N[C@@H](CC(=O)O)C(=O)N[C@@H](CCCNC(=N)N)C(=O)N[C@@H](CC(C)C)C(=O)N[C@@H](CCCCC)C(=O)N2CCC[C@H]2C(=O)N[C@@H](C(C)C)C(=O)N[C@@H](CC(=O)O)C(=O)N[C@H](C(=O)N[C@H](CC(=O)O)C(N)=O)CSCC(=O)N[C@@H](Cc2ccccc2)C(=O)N[C@@H](Cc2ccc(O)cc2)C(=O)N[C@@H](CC(=O)O)C1=O [Example 1002] ({CH2CO}-FYD[NHexGly]Y[Ahp(2)]DRL[Ahp(2)]PVDC[dD]-NH2; thioether N-14) | –
– | – | CCCCCCN1CC(=O)N[C@@H](Cc2ccc(O)cc2)C(=O)N[C@@H](CCCC)C(=O)N[C@@H](CC(N)=O)C(=O)N[C@@H](CCCNC(=N)N)C(=O)N(C)[C@@H](CCCC)C(=O)N[C@@H](CCCCC)C(=O)N2CCC[C@H]2C(=O)N[C@@H](C(C)(C)C)C(=O)N[C@@H](CC(=O)O)C(=O)N[C@H](C(=O)N[C@@H](CO)C(=O)NCCOCCOCC(=O)NCCCCCCCCCCC(=O)O)CSCC(=O)N[C@@H](Cc2ccccc2)C(=O)N[C@@H](Cc2c[nH]c3ccccc23)C(=O)N[C@@H](CC(=O)O)C1=O [Example 2337] ({CH2CO}-FWD[NHexGly]Y[Nle]NR[NMeNle][Ahp(2)]P[Tle]DCS[AEEA][Aun]-OH; thioether N-14) | IC50 (cell-based binding high-content assay, read-out: HC CBA mVISTA IC50): 0.0217 µM
0.024 | – | CCCCCCN1CC(=O)N[C@@H](Cc2ccc(O)cc2)C(=O)N[C@@H](CCCCC)C(=O)NCC(=O)N[C@@H](CCCNC(=N)N)C(=O)N[C@@H](CC(C)C)C(=O)N[C@@H](CCCCC)C(=O)N2CCCC[C@H]2C(=O)N[C@@H](C(C)C)C(=O)N[C@@H](CO)C(=O)N[C@H](C(=O)NCC(N)=O)CSCC(=O)N[C@@H](Cc2ccccc2)C(=O)N[C@@H](Cc2ccc(O)cc2)C(=O)N[C@@H](CC(=O)O)C1=O [compound 1155] ({CH2CO}-FYD[NHexGly]Y[Ahp(2)]GRL[Ahp(2)][Pip]VSCG-NH2; thioether N-14) | –
– | 0.0151 | CCCCCCN1CC(=O)N[C@@H](Cc2ccc(O)cc2)C(=O)N[C@@H](CCCC)C(=O)NCC(=O)N[C@@H](CCCNC(=N)N)C(=O)N[C@@H](CC(C)C)C(=O)N[C@@H](CCCCC)C(=O)N2CCC[C@H]2C(=O)N[C@@H](C(C)C)C(=O)N[C@@H](C)C(=O)N[C@H](C(=O)NCC(=O)O)CSCC(=O)N[C@@H](Cc2ccccc2)C(=O)N[C@@H](Cc2ccc(O)cc2)C(=O)N[C@@H](CC(=O)O)C1=O [Example 1007] ({CH2CO}-FYD[NHexGly]Y[Nle]GRL[Ahp(2)]PVACG-OH; thioether N-14) | –
– | 0.0055 | CCCCCCN1CC(=O)N[C@@H](Cc2ccc(O)cc2)C(=O)N[C@@H](CCCCC)C(=O)N[C@@H](CC(N)=O)C(=O)N[C@@H](CCCNC(=N)N)C(=O)N[C@@H](CC(C)C)C(=O)N[C@@H](CCCCC)C(=O)N2CCC[C@H]2C(=O)N[C@@H](C(C)C)C(=O)N[C@@H](CC(N)=O)C(=O)N[C@H](C(=O)NCC(=O)O)CSCC(=O)N[C@@H](Cc2ccccc2)C(=O)N[C@@H](Cc2ccc(O)cc2)C(=O)N[C@@H](CC(=O)O)C1=O [Example 1026] ({CH2CO}-FYD[NHexGly]Y[Ahp(2)]NRL[Ahp(2)]PVNCG-OH; thioether N-14) | –
– | – | CCCCCCN1CC(=O)N[C@@H](Cc2ccc(O)cc2)C(=O)N[C@@H](CCCC)C(=O)N[C@@H](CC(=O)O)C(=O)N[C@@H](CCCN)C(=O)N[C@@H](CC(C)C)C(=O)N[C@@H](CCCCC)C(=O)N2CCC[C@H]2C(=O)N[C@@H](C(C)C)C(=O)N[C@@H](CC(=O)O)C(=O)N[C@H](C(=O)N[C@@H](CC(=O)O)C(N)=O)CSCC(=O)N[C@@H](Cc2ccc3ccccc3c2)C(=O)N[C@@H](Cc2ccc(O)cc2)C(=O)N[C@@H](CC(=O)O)C1=O [Ex 1268] ({CH2CO}-[2Nal]YD[NHexGly]Y[Nle]D[Orn]L[Ahp(2)]PVDCD-NH2; thioether N-14) | IC50 [2]: 0.0097 µM
– | – | CCCCCCN1CC(=O)N[C@@H](Cc2ccc(O)cc2)C(=O)N[C@@H](C(C)C)C(=O)NCC(=O)N[C@@H](CCCNC(=N)N)C(=O)N[C@@H](CC(C)C)C(=O)N[C@@H](CCCCC)C(=O)N2CCC[C@H]2C(=O)N[C@@H](C(C)C)C(=O)N[C@@H](CC(=O)O)C(=O)N[C@H](C(=O)NCC(=O)O)CSCC(=O)N[C@@H](Cc2ccc3ccccc3c2)C(=O)N[C@@H](Cc2ccc(O)cc2)C(=O)N[C@@H](CC(=O)O)C1=O [Ex 1280] ({CH2CO}-[2Nal]YD[NHexGly]YVGRL[Ahp(2)]PVDCG-OH; thioether N-14) | IC50 [2]: 0.0337 µM

Structure (SMILES) | IC50 (read-out: HC CBA mVISTA IC50) [µM] | IC50 [1] [µM] | other results
CCCCCCN1CC(=O)N[C@@H](Cc2ccc(O)cc2)C(=O)N[C@@H](CC(C)C)C(=O)N[C@@H](CC(N)=O)C(=O)N[C@@H](CCCNC(=N)N)C(=O)N(C)[C@@H](CCCC)C(=O)N[C@@H](CCCCC)C(=O)N2CCC[C@H]2C(=O)N[C@@H](C(C)(C)C)C(=O)N[C@@H](CO)C(=O)N[C@H](C(=O)NCC(N)=O)CSCC(=O)N[C@@H](Cc2cccc(Cl)c2)C(=O)N[C@@H](Cc2ccc(O)cc2)C(=O)N[C@@H](CC(=O)O)C1=O [compound 1209] ({CH2CO}-[Phe(3-Cl)]YD[NHexGly]YLNR[NMeNle][Ahp(2)]P[Tle]SCG-NH2; thioether N-14) | 0.0332 | – | –
